The values that follow come from ChEMBL document CHEMBL4411258, “Novel natural compounds from endophytic fungi with anticancer activity” (Eur J Med Chem, 2018).

Test [1] relates to Vero. Description: Cytotoxicity against African green monkey Vero cells by resazurin microplate assay. Conditions: Chlorocebus sabaeus. Type of test: cell-based. For orientation: The colour change of resazurin is a common sign of viable cells or microbes.
Test [2] relates to NCI-H187. Description: Cytotoxicity against human NCI-H187 cells by resazurin microplate assay. Type of test: functional, cell-based.
Test [3] concerns HL-60. The test is described as follows: Cytotoxicity against human HL60 cells by MTT assay. Type of test: functional, cell-based. Background: Tetrazolium assays rely on reduction of a dye to a coloured formazan, in cell work by metabolically active cells.
For test [4], the system named is A549. The test is described as follows: Cytotoxicity against human A549 cells by MTT assay. Type of test: functional, cell-based.
Test [5] relates to MDA-MB-435. The test is described as follows: Cytotoxicity against human MDA-MB-435 cells by MTT assay. Type of test: functional, cell-based.
The test system of test [6] is SGC-7901. The test is described as follows: Cytotoxicity against human SGC7901 cells by MTT assay. Type of test: functional, cell-based.
Test [7] has as its system HL-60. Description: Cytotoxicity against human HL60 cells by trypan blue staining based assay. Type of test: functional, cell-based.
Test [8] deals with RPMI-8226. Description: Cytotoxicity against human RPMI8226 cells after 48 hrs by MTT assay. Type of test: functional, cell-based. Conditions: RPMI-8226, 48 h.
Test [9] concerns NCI-H446. Description: Cytotoxicity against human NCI-H446 cells by MTS assay. Type of test: functional, cell-based.
Test [10] has as its system Huh-7. The test is described as follows: Cytotoxicity against human HuH7 cells by MTS assay. Type of test: functional, cell-based.
In test [11] the test system is SW1990. Description: Cytotoxicity against human SW1990 cells by MTS assay. Type of test: functional, cell-based.
The nature of test [12]: Cytotoxicity against mouse LM3 cells by MTS assay. Type of test: functional, cell-based.
For test [13], the system named is MCF7. Description: Cytotoxicity against human MCF7 cells by MTS assay. Type of test: functional, cell-based.
Test [14] deals with HeLa. The test is described as follows: Cytotoxicity against human HeLa cells by MTS assay. Type of test: functional, cell-based.
The subject of test [15] is L02. The test is described as follows: Cytotoxicity against human L02 cells by MTS assay. Type of test: cell-based.
Test [16] concerns A549. Description: Cytotoxicity against human A549 cells by MTS assay. Type of test: functional, cell-based.
Test [17] is described as follows: Inhibition of RANKL-induced NFkappaB (unknown origin) activation expressed in mouse RAW264.7 cells preincubated for 1 hr followed by RANKL stimulation and measured after 6 hrs by luciferase reporter gene based assay. Type of test: cell-based. In general terms: Reporter assays use an easily measured gene product as a stand-in for the process of interest.
Test [18] has as its system HepG2. Description: Cytotoxicity against human HepG2 cells after 24 hrs by MTT assay. Type of test: functional, cell-based. Conditions: HepG2, 24 h.
For test [19], the system named is NB-4. The test is described as follows: Cytotoxicity against human NB4 cells by MTT assay. Type of test: functional, cell-based.
Test [20] deals with HepG2. The test is described as follows: Cytotoxicity against human HepG2 cells by MTT assay. Type of test: functional, cell-based.
Test [21] concerns SH-SY5Y. The test is described as follows: Cytotoxicity against human SH-SY5Y cells by MTT assay. Type of test: functional, cell-based.
The subject of test [22] is PC-3. The test is described as follows: Cytotoxicity against human PC3 cells by MTT assay. Type of test: functional, cell-based.
For test [23], the system named is MCF7. Description: Cytotoxicity against human MCF7 cells by MTT assay. Type of test: functional, cell-based.
For test [24], the system named is MOLT-3. Description: Cytotoxicity against human MOLT3 cells by XTT assay. Type of test: functional, cell-based.
Test [25] has as its system SK-OV-3. The test is described as follows: Cytotoxicity against human SKOV3 cells after 48 hrs by neutral red dye based assay. Type of test: functional, cell-based. Conditions: SK-OV-3, 48 h.
In test [26] the test system is BT-549. The test is described as follows: Cytotoxicity against human BT549 cells after 48 hrs by neutral red dye based assay. Conditions: BT-549, 48 h. Type of test: functional, cell-based.

SMILES strings stand for the structures. Converted amounts (≈) assume the structure as drawn.

For orientation: IC50 means the concentration that inhibits the measured activity by half. Regarding `C[C@@H]1CC[C@@H]2[C@H](C=C[C@H]3[C@H](/C=C/[C@H](C)O)OC(=O)[C@@]23C)C1`, the 50% inhibitory concentration (IC50) in [1] came out at 31.5 µg/mL (≈ 108 µM); in test [2], 17.8 µg/mL (≈ 61.2 µM).
Consider `COC1=C2c3cc(OC)cc(O)c3C(=O)O[C@]2(C)CC1=O`, for which the half-inhibitory concentration (IC50) in [3] was found to be 75.3 µM.
Take `CC1=C[C@@H]2/C=C/C[C@H](C)/C=C(\C)C(=O)C(=O)/C=C/C(=O)[C@]23C(=O)N[C@H]2Cc4c([nH]c5ccccc45)[C@@]1(C)[C@@H]23`: the figures for the IC50 in test [4], in test [5] and in test [6] were 8.73 µM, 4.65 µM and 5.32 µM, respectively.
`CC1=C(C)C2=CC(=O)C3=C(C(=O)c4oc(C)cc4C3=O)[C@@]2(C)CC1=O`: it took 12.5 µM to reach half-maximal inhibition in [3] (IC50).
`CC(C)=CCCC(C)(O)[C@H]1CC[C@@]2(C)OC3=C(C[C@@H]12)C(=O)[C@@H](O)CC3` (some centres undefined) registered a concentration for half-maximal inhibition (IC50) in [7] of 32.5 µM.
Consider `CO[C@H]1C[C@H](O)C2=C(C[C@H]3C(=C(C)C)CC[C@@]3(C)O2)C1=O`, for which 92.1 µM corresponded to half-maximal inhibition in test [8] (IC50).
For the compound `CO[C@@H]1CCC(=O)c2c([C@@H]3CCC(=O)c4c(O)cccc43)ccc(O)c21`, the half-maximal inhibitory concentration (IC50) in test [9], in [10], in test [11], in [12], in [13] and in [14] was 1 to 20 µM each time. The IC50 in test [15] and in [16] was 1 to 20 µM throughout.
`COC(=O)c1cc(O)cc2oc3c(c(=O)c12)[C@@H](OC)O[C@H](C)C3` yielded a concentration for half-maximal inhibition (IC50) in test [17] of 30 to 46 µM.
Regarding `COc1ccc2c3c([nH]c2c1)C(C=C(C)C)N1C(=O)C2CCCN2C(=O)C1(OC)C3OC(=O)c1cc(O)cc(OC)c1C(=O)c1c(O)cc(C)cc1OC` (centres undefined), the IC50 in test [18] came to 47.5 µM.
Still for that read-out and setting: under `CC(=O)OC(CC=C(C)C)C[C@@]1(C)CCC[C@H]2[C@@]3(C)C=CC(=O)[C@@H](C)[C@@H]3[C@H](OC(C)=O)C(=O)[C@@]21C` (some centres undefined) stands 140 µM.
`CO[C@H]1CCC(=O)c2c([C@@H]3CCC(=O)c4c(O)cccc43)ccc(O)c21`: the IC50 in [9], in test [10], in test [11], in [12], in test [13] and in test [14] was 1 to 20 µM in each case. Also, the IC50 in [15] and in test [16] was 1 to 20 µM in each case.
In [7], `C=C(CO)C(=O)CCC(C)C1=CC[C@@]2(C)OC3=C(C[C@@H]12)C(=O)[C@@H](O)CC3` (some centres undefined) yielded an IC50 of 4.81 µM.
Still for that read-out and setting: under `O=C1C[C@@H](O)[C@]2(Oc3cccc4c(O)ccc(c34)O2)c2c(O)ccc(O)c21` stands 2.39 µM.
Take `O=C1CC[C@@H](c2ccc(O)c3c2[C@@H](O)CCC3=O)c2cccc(O)c21`: the IC50 in test [9], in test [10], in test [11], in test [12], in test [13] and in test [14] was 1 to 20 µM in each case. The concentration for half-maximal inhibition (IC50) in [15] and in [16] was 1 to 20 µM in each case.
`COC(=O)c1cc(OC)cc2c1C(=O)[C@H]([C@@H](O)CC(C)=O)CO2` returned a concentration for half-maximal inhibition (IC50) in test [17] of 30 to 46 µM.
Consider `COC(=O)[C@]1(Cc2ccc(O)c(CC(C)=O)c2)OC(=O)C(O)=C1c1ccc(OC)cc1`, for which the IC50 in test [19], in [20], in test [15] and in test [21] was below 10 µM in each case.
`COC(=O)[C@@H]1c2c(oc3cc(C)cc(OC)c3c2=O)C=C[C@H]1O`: the concentration for half-maximal inhibition (IC50) in test [4] is 8.2 µM; in [22] it was 6.9 µM; in test [21], 7.8 µM; in [23], 8.4 µM.
For the compound `COC(=O)c1cc(OC)cc2c1C(=O)[C@@H]([C@@H](O)CC(C)=O)CO2`, in test [17], the IC50 was in the range of 30 to 46 µM.
In the case of `COC(=O)[C@@H]1c2c(oc3cc(CO)cc(OC)c3c2=O)C=C[C@H]1O`, the IC50 in test [4] was found to be 5.7 µM; in [19], 8.6 µM; in test [21] it was 4.9 µM; in test [23] it was 8.8 µM.
With `O=C1CC[C@@H](c2ccc(O)c3c2C(=O)CC[C@H]3O)c2cccc(O)c21`, the IC50 in test [9], in test [10], in [11], in test [12], in test [13] and in test [14] was 1 to 20 µM throughout. Besides, the half-inhibitory concentration (IC50) in test [15] and in test [16] was 1 to 20 µM each time.
`C/C(=C\C=C\[C@H](O)[C@@H](C)O)[C@H](O)[C@H](C)C(=O)O[C@H]1C[C@H](C)C[C@@H]2C=C[C@H](C)[C@](C)(C(=O)CCO)[C@@H]12` had an IC50 in test [24] of 37.3 µg/mL (≈ 75.7 µM).
Consider `COC(=O)[C@@H]1c2c(oc3cc(CCO)cc(O)c3c2=O)C=C[C@H]1O`, for which the 50% inhibitory concentration (IC50) in test [4] was 5.6 µM; in test [19], 2.2 µM; in test [22] it was 2.8 µM; in test [21] it was 4.1 µM; in test [23] it was 6.5 µM.
As to `CC(C)=CC/C=C(/C)[C@H]1CC[C@@]2(C)OC3=C(C[C@@H]12)C(=O)CC[C@@H]3O`, in test [7], half-maximal inhibition (IC50) required 30.6 µM.
`C/C=C/C(O)[C@@H]1OC(=O)[C@@]2(C)[C@@H]3CC[C@@H](C)C[C@H]3C=C[C@@H]12` (some centres undefined): the concentration for half-maximal inhibition (IC50) in [1] worked out at 24.2 µg/mL (≈ 83.5 µM); in test [2], 30.5 µg/mL (≈ 105 µM).
For `CC1=C[C@@H]2/C=C/C[C@H](C)/C=C(\C)[C@@H](O)C(=O)/C=C/C(=O)[C@]23C(=O)N[C@H]2Cc4c([nH]c5ccccc45)[C@@]1(C)[C@@H]23`, the half-inhibitory concentration (IC50) in test [4] is 16.1 µM; in test [5], 7.55 µM; in test [6], 7.32 µM.
The compound `COC1=C2c3cc(OC)cc(O)c3C(=O)O[C@@]2(C)CC1=O` gave an IC50 in test [3] above 200 µM.
For the compound `O=C1CC[C@]2(C[C@@H](O)C(=O)O2)c2cccc(O)c21`, in test [7], the IC50 was determined as 29.1 µM.
`CC(C)CCC[C@@H](C)[C@H]1CC[C@H]2[C@@H]3CC[C@H]4C[C@@H](O[C@@H]5O[C@H](CO)[C@@H](O)[C@H](O)[C@H]5O)CC[C@]4(C)[C@H]3CC[C@]12C`: the IC50 in [22] was 6.1 µM; in test [20], 5.5 µM; in test [15], 4.7 µM.
Take `COC(=O)c1cc(OC)c(O)c2oc3c(c(=O)c12)[C@H](OC)O[C@@H](C)C3`: the IC50 in [17] was in the range of 30 to 46 µM.
For `CC(C)=C1CC[C@@]2(C)OC3=C(C[C@@H]12)C(=O)[C@]1(O)CO[C@H]3C1`, the midpoint of inhibition in [8], the IC50, lay at 83.7 µM.
Take `O=C1CC[C@@H](c2ccc(O)c3c2C(=O)CCC3=O)c2cccc(O)c21`: the IC50 in test [9], in test [10], in test [11], in [12], in test [13] and in test [14] was 1 to 20 µM each time. Also, the half-inhibitory concentration (IC50) in [15] and in test [16] was 1 to 20 µM in each case.
On to `CC1=C[C@@H]2/C=C/C[C@H](C)/C=C(\C)CC(=O)/C=C/C(=O)[C@]23C(=O)N[C@@H](Cc2c[nH]c4ccccc24)[C@@H]3[C@@H]1C` [PROCHEATOGLOBOSIN II], for which the 50% inhibitory concentration (IC50) in test [4] was 35.9 µM; in [5], 36.9 µM; in test [6], 37.7 µM.
With `C=C(CC[C@@H](C)[C@H]1CC=C2C3=C([C@@H](O)[C@H](OC(C)=O)[C@@]21C)[C@@]1(C)C[C@@H](O)[C@H](OC(=O)CCCCCCCCCO)C(C)(C)[C@@H]1CC3)C(C)C`, the results for the IC50 in test [25] and in test [26] were 0.12 µg/mL and 1.76 µg/mL, respectively.
The corresponding values for `C[C@@H](N)C(=O)Nc1ccccc1C(=O)N[C@@H](O)CCS` are 0.8 µM and 0.4 µM.
